Test results reported in US9045484B2, “Inhibitors of the BMP signaling pathway” (The Brigham and Women's Hospital, Inc., priority 2008, dated 2015).
Like-named read-outs stand apart in the source and are kept apart here.

Assays:
[1] = test system: turpentine-treated C57BL/6 mice; test: Established turpentine-induced anemia of inflammation (rescue); format: in vivo
Description: After the establishment of anemia, treatment with either vehicle or compound 13 (3 mg/kg/d IP) is begun concurrently with an additional 3 weeks of weekly turpentine injections, to assess the potential for rescuing established turpentine-induced anemia of inflammation. […] Shaded areas indicate normative values in C57BL/6 mice for each parameter.

[2] = test system: LDL-R-deficient mice; test: Vascular calcification in high-fat diet fed LDL-R-deficient mice, Osteosense probe imaging of aortas; format: in vivo; details: 16 weeks high fat diet; compound 13 mg/kg IP twice daily; FIG. 24
Description: Adult (10 week old) LDL-R-deficient mice on a C57BL/6 background were subjected to a high-lipid atherogenic diet, concurrently with vehicle treatment or drug treatment (compound 13 mg/kg IP twice daily) started simultaneously with atherogenic diet. After 16 weeks of high fat diet and drug treatment, aortas, carotids, and left ventricular outflow tract were harvested and prepared as appropriate for histochemical staining or immunohistological staining, by en face mounting and fixation, or for paraffin embedded tissue sections for histology. To analyze early osteogenesis (as a precursor to calcification), mice were injected intravenously with Osteosense probe (VisEn) 24 hours prior to harvest, and harvested aortas were rinsed with phosphate buffered saline. Visualization of Osteosense probe was accomplished by near-IR fluorescence ([…]) using a LICOR laser scanner. This technique readily detected signal in aortas obtained from high-fat diet LDL-R-deficient mice treated with vehicle control (e, f, and g), while relatively little background signal was obtained in wild-type mice given a normal diet (a, b). Non-fluorescent imaging of wild-type aortas is also depicted (c, d).

[3] = test system: C57BL/6 wild-type mice; test: 30-day treatment of wild-type mice, circulating blood cell lineages; format: in vivo, C57BL/6 mice
[4] = Plasma pharmacokinetics after single bolus intraperitoneal administration; format: in vivo, C57B16 mice; details: IP 3 mg/kg
Description: The pharmacokinetics of 13.HCl was evaluated after a single bolus intraperitoneal administration (3 mg/kg) in male and female C57B16 mice on a commercial rodent diet and water ad libitum prior to the study. Compound plasma levels were determined by LC-MS/MS and the pharmacokinetic parameters were determined using WinNonlin software (Pharsight Co., Mountain View, Calif.). Dosing solutions (0.6 mg/mL) were prepared in a vehicle comprising 2% hydropropyl-β-cyclodextrin in phosphate-buffered saline (PBS). Each time point (pre-dose, 5, 10, 15, 30, 60, 120, 240, 480, 1440 min post-dose) was dosed as N=3/sex. Each blood sample was collected via cardiac puncture after euthanasia with CO2 and placed in chilled tubes containing sodium heparin. Samples were centrifuged at 4° C. at 13,000 rpm for 5 min followed by extracted with acetonitrile and then analyzed.
The pharmacokinetics of 44.HCl and 37.HCl were evaluated after a single bolus intraperitoneal administration (3 mg/kg) in male C57B16 mice on a commercial rodent diet and water ad libitum prior to the study. Compound plasma levels were determined by LC-MS/MS and the pharmacokinetic parameters were determined using WinNonlin software (Pharsight Co., Mountain View, Calif.). Dosing solutions (0.6 mg/mL) were prepared in a vehicle comprising 2% hydropropyl-β-cyclodextrin in phosphate-buffered saline (PBS). Each time point (pre-dose, 5, 10, 15, 30, 60, 120, 240, 480, 1440 min post-dose) was dosed as
N=3/sex. Each blood sample was collected via cardiac puncture after euthanasia with CO2 and placed in chilled tubes containing sodium heparin. Samples were centrifuged at 4° C. at 13,000 rpm for 5 min followed by extracted with acetonitrile and then analyzed.

[5] = C57BL/6, mouse, in vivo, ip, 3 mg/kg, 8 h
Description: Preliminary pharmacokinetic studies were performed by intraperitoneally administering to wild-type mice (C57BL/6) one dose (3 mg/kg) of compound 13 (FIG. 23). Pharmacokinetics via plasma levels of compound 13 were serially measured in individual mice at varying intervals after injection by LC-MS/MS (n=3 mice each point, mean±s.d.).

[6] = test system: IL6-induced hepcidin expression in HepG2 cells; test: IL6-induced hepcidin expression in HepG2 hepatoma cells; format: cell-based, human; details: pretreatment 5-625 nM for 30 min, IL6 50 ng/mL 1.5 h; FIG. 7
Description: HepG2 cells pretreated with compound 13 (5-625 nM) or vehicle for 30 min. were incubated with IL6 (50 ng/mL) for 1.5 h. Cells were harvested, and hepcidin mRNA and 18S rRNA levels were measured by quantitative RT-PCR. Changes in gene expression were normalized to 18S ribosomal RNA levels using the relative cycle threshold method.

[7] = test system: BMP-induced phosphorylation of SMAD1/5/8; test: BMP4-induced phosphorylation of SMAD1/5/8, cytoblot (cellular ELISA); format: cell-based, murine; details: Mus musculus; FIG. 1; approximate; read-out: functional IC50, BMP4-induced SMAD1/5/8 phosphorylation
Description: Murine pulmonary artery smooth muscle cells were isolated, explanted and cultured as previously described (see […] et al. Am. J. Physiol. Lung Cell Mol. Physiol. 280:[…], 2001) and then grown to confluence in 96 well tissue culture plates. Cells were incubated in serum-free medium for 18 h, and then incubated with recombinant BMP2, BMP4, BMP6, BMP9, GDF5, TGF-β, or Activin A ligands (R&D Systems, Minneapolis, Minn.) at varying concentrations in duplicate for 20 minutes. […] Specificity for BMP-mediated signaling was determined separately using a modification of the cellular ELISA technique assaying for the activation of SMAD2 or SMAD3 via TGF-β, or Activin A. A corresponding IC50 was calculated for the effects of these compounds upon those signaling pathways.

[8] = test system: hepcidin; test: Hepcidin expression in IL-6-expressing transgenic zebrafish; format: in vivo; details: 6 uM by bathing overnight; 7 days postfertilization; FIG. 22
Description: IL-6 expression was driven in the cardiomyocytes of living zebrafish by mating transgenic zebrafish expressing the Gal4 protein under the control of the cardiac myosin light chain 2 (cmlc) promoter with transgenic zebrafish carrying the human IL-6 gene under the control of a UAS upstream activation sequence (IL-6). Animals carrying both transgenes expressed IL-6 in their cardiomyocytes. IL-6-expressing animals were treated with 6 uM compound 13 or DMSO control by bathing overnight (FIG. 22). At 7 days postfertilization, animals were lysed, total RNA was extracted, and hepcidin expression levels were determined by quantitative RT-PCR with normalization to the housekeeping gene RPL13.

[9] = 3 mg/kg/d IP for 30 days, average (n = 4)

With c1ccc2c(-c3cnn4cc(-c5ccc(N6CCNCC6)cc5)cnc34)ccnc2c1 [Compound 13, 4-[6-(4-piperazin-1-ylphenyl)pyrazolo[1,5-a]pyrimidin-3-yl]quinoline] as the compound, how does the blood hemoglobin ([1]; 3 mg/kg/d IP for final 3 weeks of 6 weeks turpentine, FIG. 17) read?
Its blood hemoglobin is “significant improvement”.

What about the hematocrit ([1]; 3 mg/kg/d IP for final 3 weeks of 6 weeks turpentine, FIG. 18) of the same compound?
The hematocrit was “restoration of hematocrit to values within the normal range”.

And the “mean corpuscular volume (MCV)” value ([1]; 3 mg/kg/d IP for final 3 weeks of 6 weeks turpentine, FIG. 19)?
The value was “restores MCV to low-normal levels”.

What about the neutrophilia ([1]; FIG. 21) of the same compound?
Its neutrophilia is “induced neutrophilia regardless of treatment with vehicle or compound 13”.

What about the reticulocyte counts ([1]; cotreatment for final 3 weeks of 6 weeks turpentine, FIG. 20) of the same compound?
The reticulocyte counts was “restores high-normal reticulocyte counts”.

What about the “Osteosense near-IR fluorescence of aortas” value [2] of the same compound?
The value was “less intense than that of vehicle-treated controls”.

What about the “myelosuppression, thrombocytopenia, anemia or erythrocytosis” value ([3]; 3 mg/kg/d IP for 30 days) of the same compound?
The value was “did not appear to cause myelosuppression, thrombocytopenia, anemia or conversely erythrocytosis”.

What about the “% Lymphocyte” value [3, 9] of the same compound?
The value was 63.1%.

What about the “% Monocyte” value [3, 9] of the same compound?
The value was 3.8%.

What about the “% Neutrophil” value [3, 9] of the same compound?
The value was 30.8%.

And the “% Reticulocyte” value [3, 9]?
The value was 2.6%.

What about the Hb [3, 9] of the same compound?
Its Hb is 11.9 g/dL.

What about the Hct [3, 9] of the same compound?
The Hct was 43.8%.

What about the MCHC [3, 9] of the same compound?
The MCHC was 27.3 g/dL.

And the MCV [3, 9]?
Its MCV is 48.5 fL.

What about the Platelet count [3, 9] of the same compound?
Its Platelet count is 8.305e+11 L⁻¹.

And the RBC [3, 9]?
The RBC was 9e+12 L⁻¹.

And the RDW [3, 9]?
Its RDW is 18.6%.

What about the “Total WBC” value [3, 9] of the same compound?
Its value is 1.9e+09 L⁻¹.

What about the “serum iron in the steady state” value ([3]; 30 days treatment, compared to vehicle-treated controls, data not shown) of the same compound?
The value was “did not cause an elevation of serum iron”.

And the Tmax ([4]; C57B16, mouse, female mice, read-out: tmax)?
Its Tmax is less than 5 min.

And the Tmax ([4]; C57B16, mouse, male mice, read-out: tmax)?
Its Tmax is less than 5 min.

What about the “AUC∞” value ([4]; female mice) of the same compound?
Its value is 1030 ng·h/mL.

And the Cmax ([4]; female mice)?
Its Cmax is 1290 nM.

What about the Tmax ([4]; female mice) of the same compound?
The Tmax was less than 5 min.

What about the t1/2 ([4]; female mice) of the same compound?
The t1/2 was 96 min.

What about the “AUC∞” value ([4]; male mice) of the same compound?
Its value is 994 ng·h/mL.

What about the Cmax ([4]; male mice) of the same compound?
The Cmax was 1540 nM.

What about the Tmax ([4]; male mice) of the same compound?
Its Tmax is less than 5 min.

What about the t1/2 ([4]; male mice) of the same compound?
The t1/2 was 96 min.

What about the “plasma levels relative to in vitro IC50 for BMP4-mediated activation of Smad1/5/8” value [5] of the same compound?
Its value is 5 fold.

And the “IL6-mediated increase in hepcidin mRNA levels” value [6]?
Its value is “abrogated the IL6-mediated increase in hepcidin mRNA levels in a dose-dependent fashion”.

And the IC50 [7]?
Its IC50 is 5 to 10 nM.

What about the “hepcidin expression in IL-6-expressing animals” value [8] of the same compound?
The value was “reduced hepcidin expression to wild-type levels”.
